Reference: patent publication US20070128217A1 (priority 2003, published 2007)

Key:
[1] = test system: antibodies in sera from SARS patients (sera 1a, 1b, 2, 6, 37, 62, London, SARS-yellow, SARS-green); format: binding, human; set-up: Binding of serum 6 to linear peptides of protein X1 of SARS-CoV Urbani / Binding of serum 37 to linear peptides of protein X1 of SARS-CoV Urbani / Binding of serum 6 to looped/cyclic peptide (PEPSCAN-ELISA) / Binding of serum 37 to looped/cyclic peptide (PEPSCAN-ELISA) / Binding of serum 37 to looped/cyclic peptides of protein X1 of SARS-CoV Urbani / Binding of serum 6 to linear peptides of protein X2 / Binding of serum 37 to linear peptides of protein X2 / Binding of serum 37 to looped/cyclic peptides of protein X2 of SARS-CoV Urbani / Binding of serum 6 to linear peptides of protein M of SARS-CoV Urbani / Binding of serum 37 to linear peptides of protein M of SARS-CoV Urbani / Binding of serum 6 to looped/cyclic peptides of protein M of SARS-CoV Urbani / Binding of serum 37 to looped/cyclic peptides of protein M of SARS-CoV Urbani / Binding of serum 6 to linear peptides of protein X3 of SARS-CoV Urbani / Binding of serum 37 to linear peptides of protein X3 of SARS-CoV Urbani / Binding of serum 37 to looped/cyclic peptides of protein X3 of SARS-CoV Urbani / Binding of serum 6 to linear peptides of protein X4 of SARS-CoV Urbani / Binding of serum 37 to linear peptides of protein X4 of SARS-CoV Urbani / Binding of serum 37 to looped/cyclic peptides of protein X4 of SARS-CoV Urbani / Binding of serum 6 to linear peptides of protein X5 of SARS-CoV Urbani / Binding of serum 37 to linear peptides of protein X5 of SARS-CoV Urbani / Binding of serum 37 to looped/cyclic peptides of protein X5 of SARS-CoV Urbani / Binding of serum 6 to linear peptides of protein N of SARS-CoV Urbani / Binding of serum 37 to linear peptides of protein N of SARS-CoV Urbani / Binding of serum 6 to linear peptide (PEPSCAN-ELISA) / Binding of serum 1a to looped/cyclic peptides of protein N of SARS-CoV Urbani / Binding of serum 1b to looped/cyclic peptides of protein N of SARS-CoV Urbani / Binding of serum 2 to looped/cyclic peptides of protein N of SARS-CoV Urbani / Binding of serum 6 to looped/cyclic peptides of protein N of SARS-CoV Urbani / Binding of serum 37 to looped/cyclic peptides of protein N of SARS-CoV Urbani / Binding of serum 62 to looped/cyclic peptides of protein N of SARS-CoV Urbani / Binding of serum London to looped/cyclic peptides of protein N of SARS-CoV Urbani / Binding of serum SARS-green to looped/cyclic peptides of protein N of SARS-CoV Urbani: unit not given here
[2] = test system: control sera (pooled serum of ten healthy LUMC hospital workers; commercial negative donor pooled serum from the Dutch bloodbank); format: binding, human; set-up: Binding of Control serum LUMC to linear peptides / Binding of Control serum Blood-bank to linear peptides / Binding of Control serum LUMC to looped peptides / Binding of Control Serum Blood-Bank to Looped peptides / Binding of Control serum LUMC to linear peptides of the protein M of SARS-CoV Urbani / Binding of Control serum Blood-bank to linear peptides of the protein M of SARS-CoV Urbani / Binding of Control serum LUMC to looped peptides of the protein M of SARS-CoV Urbani / Binding of Control Serum Blood-Bank to Looped peptides of the protein M of SARS-CoV Urbani: unit not given here
[3] = test system: rabbit serum obtained by immunizing a rabbit with the SARS-CoV strain Frankfurt 1; format: binding; set-up: Binding of a rabbit serum to linear peptides / Binding of a rabbit serum to looped peptides / Rabbit serum linear peptides / Rabbit serum looped peptides / Binding of a rabbit serum to linear peptides of protein N of SARS-CoV Urbani (Rabbit serum linear peptides) / Binding of a rabbit serum to looped/cyclic peptides of protein N of SARS-CoV Urbani (Rabbit serum looped peptides): unit not given here
[4] = test system: recombinant human anti-SARS-CoV antibody 03-018; format: binding; set-up: Binding of antibody 03-018 to linear peptides of the N protein of SARS-CoV Urbani / Binding of antibody 03-018 to looped/cyclic peptides of the N protein of SARS-CoV Urbani: unit not given here

Sequence	Binding of serum 1a to looped/cyclic peptides of protein N of SARS-CoV Urbani [1]	Binding of serum 1b to looped/cyclic peptides of protein N of SARS-CoV Urbani [1]	Binding of serum 2 to looped/cyclic peptides of protein N of SARS-CoV Urbani [1]	Binding of serum 6 to looped/cyclic peptides of protein N of SARS-CoV Urbani [1]	Binding of serum 37 to looped/cyclic peptides of protein N of SARS-CoV Urbani [1]	Binding of serum 62 to looped/cyclic peptides of protein N of SARS-CoV Urbani [1]	Binding of serum London to looped/cyclic peptides of protein N of SARS-CoV Urbani [1]	Binding of serum SARS-green to looped/cyclic peptides of protein N of SARS-CoV Urbani [1]	Binding of serum SARS-yellow to looped/cyclic peptides of protein N of SARS-CoV Urbani [1]	Binding of Control Serum Blood-Bank to Looped peptides [2]	Binding of Control serum Blood-bank to linear peptides [2]	Binding of Control serum LUMC to linear peptides [2]	Binding of Control serum LUMC to looped peptides [2]	Binding of a rabbit serum to linear peptides of protein N of SARS-CoV Urbani (Rabbit serum linear peptides) [3]	Binding of a rabbit serum to looped/cyclic peptides of protein N of SARS-CoV Urbani (Rabbit serum looped peptides) [3]	Binding of antibody 03-018 to linear peptides of the N protein of SARS-CoV Urbani [4]	Binding of antibody 03-018 to looped/cyclic peptides of the N protein of SARS-CoV Urbani [4]	also measured
NTNSGPDDQIGYYRR	0.5	0.4	0.5	0.3	0.9	0.8	0.5	0.6	0.6	0.7	0.7	0.7	0.9	0.1	0.6	0.1	0.3	Binding of serum 1a to linear peptides of protein N of SARS-CoV Urbani [1]: 0.2; Binding of serum 1b to linear peptides of protein N of SARS-CoV Urbani [1]: 0.1; Binding of serum 2 to linear peptides of protein N of SARS-CoV Urbani [1]: 0.2; Binding of serum 6 to linear peptides of protein N of SARS-CoV Urbani [1]: 0.2; Binding of serum 37 to linear peptides of protein N of SARS-CoV Urbani [1]: 0.6; Binding of serum 62 to linear peptides of protein N of SARS-CoV Urbani [1]: 0.6; Binding of serum London to linear peptides of protein N of SARS-CoV Urbani [1]: 0.4; Binding of serum SARS-green to linear peptides of protein N of SARS-CoV Urbani [1]: 0.3; Binding of serum SARS-yellow to linear peptides of protein N of SARS-CoV Urbani [1]: 0.7
GNSPARMASGGGETA	0.2	0.1	0.3	0.1	0.2	0.2	0.3	0.3	0.0	0.5	0.8	0.7	0.4	0.1	0.0	0.2	0.2	Binding of serum 1a to linear peptide (PEPSCAN-ELISA) [1]: 0.3; Binding of serum 1b to linear peptide (PEPSCAN-ELISA) [1]: 0.1; Binding of serum 2 to linear peptide (PEPSCAN-ELISA) [1]: 0.2; Binding of serum 6 to linear peptide (PEPSCAN-ELISA) [1]: 0.2; Binding of serum 37 to linear peptide (PEPSCAN-ELISA) [1]: 0.6; Binding of serum 62 to linear peptide (PEPSCAN-ELISA) [1]: 0.6; Binding of serum London to linear peptide (PEPSCAN-ELISA) [1]: 0.6; Binding of serum SARS-green to linear peptide (PEPSCAN-ELISA) [1]: 0.2; Binding of serum SARS-yellow to linear peptide (PEPSCAN-ELISA) [1]: 0.5
